“And” between values parts separate entries of the source, which are not always exact repeats. Equal values may be shown once. Toxic doses and inconclusive results are not listed.
Test system: CD2F1 mice, L1210 leukemia ip, survival T/C
Experiment: NCI In Vivo Anticancer Drug Screen. Data for tumor model L1210 Leukemia (intraperitoneal) in CD2F1 (CDF1) mice
Conditions: endpoint: mean survival time, higher = longer survival
How it was run: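 Mice carrying a transplanted tumor received test compound or vehicle alone. The value is the measurement in the treated group divided by that in the vehicle-treated control group.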

[1] = dose: 50.0 mg/kg/injection, schedule: Q01DX009 (ip), vehicle: saline
[2] = dose: 100.0 mg/kg/injection, schedule: Q01DX009 (ip), vehicle: saline
[3] = dose: 200.0 mg/kg/injection, schedule: Q01DX009 (ip), vehicle: saline
[4] = dose: 100.0 mg/kg/injection, schedule: Q01DX001 (ip), vehicle: saline with Tween-80
[5] = dose: 200.0 mg/kg/injection, schedule: Q01DX001 (ip), vehicle: saline with Tween-80
[6] = dose: 100.0 mg/kg/injection, schedule: Q01DX001 (ip), vehicle: carboxymethylcellulose (CMC)
[7] = dose: 200.0 mg/kg/injection, schedule: Q01DX001 (ip), vehicle: carboxymethylcellulose (CMC)
[8] = dose: 400.0 mg/kg/injection, schedule: Q01DX001 (ip), vehicle: carboxymethylcellulose (CMC)
[9] = dose: 100.0 mg/kg/injection, schedule: Q04DX003 (ip), vehicle: saline
[10] = dose: 200.0 mg/kg/injection, schedule: Q04DX003 (ip), vehicle: saline

CN(C)CC(Cl)CCl (stereo not drawn)
T/C (dose: 12.5 mg/kg/injection, schedule: Q01DX009 (ip), vehicle: saline): 98 % of control
T/C (dose: 25.0 mg/kg/injection, schedule: Q01DX009 (ip), vehicle: saline): 98 % of control
T/C [1]: 104 % of control
T/C [2]: 105 % of control and 108 % of control
T/C [3]: 116 % of control and 101 % of control

O=C(/C=C/c1ccccc1)Nc1ccc(Cl)c(Cl)c1
T/C (dose: 100.0 mg/kg/injection, schedule: Q04DX002 (ip), vehicle: saline with Tween-80): 100 % of control
T/C (dose: 200.0 mg/kg/injection, schedule: Q04DX002 (ip), vehicle: saline with Tween-80): 91 % of control
T/C (dose: 400.0 mg/kg/injection, schedule: Q04DX002 (ip), vehicle: saline with Tween-80): 95 % of control

O=C1c2ccccc2C(=O)c2c(NCCNCCNCCO)ccc(NCCNCCNCCO)c21
T/C (dose: 8.0 mg/kg/injection, schedule: Q01DX009 (ip), vehicle: acid diluted with saline): 100 % of control
T/C (dose: 16.0 mg/kg/injection, schedule: Q01DX009 (ip), vehicle: acid diluted with saline): 96 % of control
T/C (dose: 32.0 mg/kg/injection, schedule: Q01DX009 (ip), vehicle: acid diluted with saline): 108 % of control
T/C (dose: 64.0 mg/kg/injection, schedule: Q01DX009 (ip), vehicle: acid diluted with saline): 96 % of control

O=C(O)C1=CC=C(c2ccccc2)C(=O)C1
T/C (dose: 12.5 mg/kg/injection, schedule: Q01DX009 (ip), vehicle: saline with Tween-80): 100 % of control
T/C (dose: 25.0 mg/kg/injection, schedule: Q01DX009 (ip), vehicle: saline with Tween-80): 98 % of control
T/C (dose: 50.0 mg/kg/injection, schedule: Q01DX009 (ip), vehicle: saline with Tween-80): 88 % of control and 90 % of control
T/C [4]: 97 % of control
T/C [5]: 93 % of control

COc1ccc(/C(C#N)=C2\OC(=O)c3ccccc32)cc1OC
T/C [1]: 93 % of control
T/C [2]: 94 % of control
T/C [3]: 94 % of control
T/C (dose: 400.0 mg/kg/injection, schedule: Q01DX009 (ip), vehicle: saline): 94 % of control

CCOC(=O)c1ccc2c(c1)Cc1cc([N+](=O)[O-])ccc1-2
T/C [6]: 98 % of control
T/C [7]: 95 % of control
T/C [8]: 95 % of control

CS(=O)(=O)OCC(/C=C/C(COS(C)(=O)=O)OS(C)(=O)=O)OS(C)(=O)=O (stereo not drawn)
T/C (dose: 100.0 mg/kg/injection, schedule: Q01DX009 (ip), vehicle: Klucel (hydroxypropylcellulose) (HPC)): 150 % of control
T/C (dose: 200.0 mg/kg/injection, schedule: Q01DX009 (ip), vehicle: Klucel (hydroxypropylcellulose) (HPC)): 175 % of control

CCOc1ccc(-n2c(O)c(N=Nc3ccccc3)c(=O)n(-c3ccccc3)c2=S)cc1
T/C [4]: 92 % of control
T/C [5]: 102 % of control

CSc1nc(=O)[nH]nc1SCc1ccccc1
T/C [6]: 100 % of control
T/C [7]: 91 % of control
T/C [8]: 89 % of control

c1ccc(-c2nc(/N=N/c3nc(-c4ccccc4)c(-c4ccccc4)[nH]3)[nH]c2-c2ccccc2)cc1
T/C (dose: 100.0 mg/kg/injection, schedule: Q04DX002 (ip), vehicle: Klucel (hydroxypropylcellulose) (HPC)): 96 % of control
T/C (dose: 200.0 mg/kg/injection, schedule: Q04DX002 (ip), vehicle: Klucel (hydroxypropylcellulose) (HPC)): 96 % of control
T/C (dose: 400.0 mg/kg/injection, schedule: Q04DX002 (ip), vehicle: Klucel (hydroxypropylcellulose) (HPC)): 100 % of control

Cc1c2ccccc2c(C)c2cnccc12
T/C (dose: 100.0 mg/kg/injection, schedule: Q01DX009 (ip), vehicle: saline with Tween-80): 97 % of control
T/C (dose: 200.0 mg/kg/injection, schedule: Q01DX009 (ip), vehicle: saline with Tween-80): 97 % of control
T/C (dose: 400.0 mg/kg/injection, schedule: Q01DX009 (ip), vehicle: saline with Tween-80): 92 % of control

CC(N)C(=O)c1ccccc1 (stereo not drawn)
T/C [9]: 105 % of control
T/C [10]: 94 % of control

Cc1ccccc1/C1=C/CCCCCC1
T/C (dose: 100.0 mg/kg/injection, schedule: Q01DX001 (ip), vehicle: saline sonified): 107 % of control
T/C (dose: 100.0 mg/kg/injection, schedule: Q04DX003 (ip), vehicle: saline with Tween-80): 102 % of control
T/C (dose: 200.0 mg/kg/injection, schedule: Q01DX001 (ip), vehicle: saline sonified): 94 % of control
T/C (dose: 200.0 mg/kg/injection, schedule: Q04DX003 (ip), vehicle: saline with Tween-80): 104 % of control
T/C (dose: 400.0 mg/kg/injection, schedule: Q01DX001 (ip), vehicle: saline sonified): 89 % of control
T/C (dose: 400.0 mg/kg/injection, schedule: Q04DX003 (ip), vehicle: saline with Tween-80): 93 % of control

NC(CSS(=O)(=O)CC(N)C(=O)O)C(=O)O (stereo not drawn)
T/C [9]: 103 % of control
T/C [10]: 109 % of control
T/C (dose: 400.0 mg/kg/injection, schedule: Q04DX003 (ip), vehicle: saline): 103 % of control

From PubChem BioAssay AID256 (DTP/NCI, 2004)
